In the assay the target is Xanthine dehydrogenase/oxidase (Rattus norvegicus, UniProt P22985). In words: Inhibition of rat liver xanthine oxidase after 2 hrs by spectrophotometry.

The values below come from BindingDB's records for doi:10.1021/jm900735p (Pharmacy School of Wenzhou Medical College, 2009).

pIC50: −log10 of the molar value.

Chain of Xanthine dehydrogenase/oxidase (P22985 whole entry): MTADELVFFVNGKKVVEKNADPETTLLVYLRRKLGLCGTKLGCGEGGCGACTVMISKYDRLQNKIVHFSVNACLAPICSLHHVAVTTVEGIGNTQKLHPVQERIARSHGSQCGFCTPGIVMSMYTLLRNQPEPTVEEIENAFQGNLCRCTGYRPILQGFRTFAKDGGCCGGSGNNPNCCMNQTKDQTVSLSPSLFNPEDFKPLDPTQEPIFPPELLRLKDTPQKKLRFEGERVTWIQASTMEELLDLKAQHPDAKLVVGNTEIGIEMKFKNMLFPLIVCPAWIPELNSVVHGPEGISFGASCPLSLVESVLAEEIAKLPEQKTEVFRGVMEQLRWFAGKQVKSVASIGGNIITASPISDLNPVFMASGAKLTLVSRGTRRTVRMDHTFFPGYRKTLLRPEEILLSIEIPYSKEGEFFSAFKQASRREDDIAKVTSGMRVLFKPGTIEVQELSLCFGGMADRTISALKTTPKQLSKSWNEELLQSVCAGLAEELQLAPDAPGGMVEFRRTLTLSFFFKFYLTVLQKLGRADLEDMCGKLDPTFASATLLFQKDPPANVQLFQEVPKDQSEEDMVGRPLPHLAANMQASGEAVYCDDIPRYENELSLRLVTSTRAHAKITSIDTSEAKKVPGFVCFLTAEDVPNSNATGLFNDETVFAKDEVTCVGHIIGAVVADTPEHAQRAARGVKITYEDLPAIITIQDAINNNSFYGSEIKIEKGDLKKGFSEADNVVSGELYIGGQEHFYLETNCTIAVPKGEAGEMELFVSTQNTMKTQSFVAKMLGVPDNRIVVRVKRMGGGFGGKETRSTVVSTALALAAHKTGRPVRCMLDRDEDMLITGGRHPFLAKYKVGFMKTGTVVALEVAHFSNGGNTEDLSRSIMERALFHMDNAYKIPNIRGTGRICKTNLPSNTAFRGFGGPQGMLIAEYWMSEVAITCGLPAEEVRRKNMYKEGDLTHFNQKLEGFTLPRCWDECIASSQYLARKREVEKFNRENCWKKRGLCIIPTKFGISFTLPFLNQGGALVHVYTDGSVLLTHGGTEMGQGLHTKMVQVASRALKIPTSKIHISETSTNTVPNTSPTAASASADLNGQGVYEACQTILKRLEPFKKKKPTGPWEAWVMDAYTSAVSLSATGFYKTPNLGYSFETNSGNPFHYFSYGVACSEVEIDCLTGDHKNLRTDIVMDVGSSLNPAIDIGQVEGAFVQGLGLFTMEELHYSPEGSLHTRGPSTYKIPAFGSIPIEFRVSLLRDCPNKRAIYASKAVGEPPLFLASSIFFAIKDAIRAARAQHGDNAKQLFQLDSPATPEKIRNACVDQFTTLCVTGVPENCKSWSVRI

The compound `COc1cc(C2Oc3cc(-c4oc5cc(O)cc(=O)c-5c(O)c4O)ccc3OC2CO)ccc1O` (configuration not stated) [Dehydrosilylbin] gave a pIC50 of 4.10.

In turn, `COc1cc([C@@H]2Oc3cc(C4Oc5cc(O)cc(O)c5C(O)C4=O)ccc3O[C@H]2CO)ccc1O` (some centres not stated) [SMR000857154] showed a pIC50 of 4.10.

A word on the pIC50: it is the negative decadic logarithm of the IC50, by convention in mol/L. A higher pIC50 goes with a small IC50.
